Measurements reported in ChEMBL document CHEMBL1201862, “PubChem BioAssay data set” (2004).
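Compound exposure: 48 hours, 5 concentrations, 96-well plates. The concentration for 50% growth inhibition is given as GI50.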 Activity calls are given as the source filed them. Cut-off read from the data, not from the text of the source: active = GI50 up to about 1.1 µM and inactive = higher.

Legend:
Assay in all cases: NCI-60 cell line screen, 48 h
[1] = system: A498
[2] = system: EKVX
[3] = system: SK-OV-3
[4] = system: MOLT-4
[5] = system: NCI/ADR-RES
[6] = system: HOP-92
[7] = system: SK-MEL-5
[8] = system: RXF 393
[9] = system: SNB-19
[10] = system: BT-549
[11] = system: HT-29
[12] = system: SW-620
[13] = system: UACC-62
[14] = system: OVCAR-8
[15] = system: HCT-116
[16] = system: UO-31
[17] = system: MDA-MB-435
[18] = system: TK-10
[19] = system: SN12C
[20] = system: OVCAR-3
[21] = system: PC-3
[22] = system: OVCAR-5
[23] = system: T47D
[24] = system: Hs-578T
[25] = system: HL-60
[26] = system: SK-MEL-2
[27] = system: A549
[28] = system: KM12
[29] = system: ACHN
[30] = system: M14
[31] = system: CCRF-CEM
[32] = system: HOP-62
[33] = system: IGROV-1
[34] = system: 786-0
[35] = system: NCI-H460
[36] = system: MCF7
[37] = system: DU-145
[38] = system: HCT-15
[39] = system: Malme-3M
[40] = system: U-251
[41] = system: K562
[42] = system: SF-268
[43] = system: SF-295
[44] = system: HCC 2998
[45] = system: NCI-H226
[46] = system: SR
[47] = system: NCI-H23
[48] = system: SF-539
[49] = system: MDA-N
[50] = system: SNB-75
[51] = system: LOX IMVI
[52] = system: COLO 205
[53] = system: UACC-257
[54] = system: SK-MEL-28
[55] = system: MDA-MB-231
[56] = system: NCI-H522
[57] = system: OVCAR-4
[58] = system: RPMI-8226
[59] = system: CAKI-1

**Q.** With `CC(=O)N1OC(C)CC1Nc1ccc(Br)cc1` (stereo not drawn) as the compound, how does the GI50 [1] read?
**A.** The GI50 was > 100 µM (inactive).

**Q.** What about the GI50 [2] of the same compound?
**A.** Its GI50 is > 100 µM (inactive).

**Q.** And the GI50 [3]?
**A.** Its GI50 is > 100 µM (inactive).

**Q.** What about the GI50 [4] of the same compound?
**A.** The GI50 was 0.971 µM (active).

**Q.** And the GI50 [5]?
**A.** Its GI50 is > 100 µM (inactive).

**Q.** And the GI50 [6]?
**A.** The GI50 was > 100 µM (inactive).

**Q.** And the GI50 [7]?
**A.** The GI50 was 6.31 µM (inactive).

**Q.** What about the GI50 [8] of the same compound?
**A.** The GI50 was > 100 µM (inactive).

**Q.** What about the GI50 [9] of the same compound?
**A.** Its GI50 is > 100 µM (inactive).

**Q.** What about the GI50 [10] of the same compound?
**A.** Its GI50 is 65.3 µM (inactive).

**Q.** And the GI50 [11]?
**A.** Its GI50 is 75.9 µM (inactive).

**Q.** And the GI50 [12]?
**A.** The GI50 was 0.76 µM (active).

**Q.** What about the GI50 [13] of the same compound?
**A.** The GI50 was 88.3 µM (inactive).

**Q.** And the GI50 [14]?
**A.** The GI50 was > 100 µM (inactive).

**Q.** And the GI50 [15]?
**A.** Its GI50 is 4.03 µM (inactive).

**Q.** What about the GI50 [16] of the same compound?
**A.** Its GI50 is 0.0955 µM (active).

**Q.** And the GI50 [17]?
**A.** The GI50 was 577 nM (active).

**Q.** And the GI50 [18]?
**A.** The GI50 was 14.7 µM (inactive).

**Q.** And the GI50 [19]?
**A.** Its GI50 is 20.8 µM (inactive).

**Q.** And the GI50 [20]?
**A.** The GI50 was 82.4 µM (inactive).

**Q.** What about the GI50 [21] of the same compound?
**A.** The GI50 was 1.04 µM (active).

**Q.** What about the GI50 [22] of the same compound?
**A.** The GI50 was 96.2 µM (inactive).

**Q.** And the GI50 [23]?
**A.** The GI50 was 1.34 µM (inactive).

**Q.** What about the GI50 [24] of the same compound?
**A.** Its GI50 is > 100 µM (inactive).

**Q.** What about the GI50 [25] of the same compound?
**A.** The GI50 was 1.95 µM (inactive).

**Q.** And the GI50 [26]?
**A.** The GI50 was 2.62 µM (inactive).

**Q.** What about the GI50 [27] of the same compound?
**A.** Its GI50 is 9.12 µM (inactive).

**Q.** And the GI50 [28]?
**A.** The GI50 was 1.44 µM (inactive).

**Q.** And the GI50 [29]?
**A.** The GI50 was 0.415 µM (active).

**Q.** What about the GI50 [30] of the same compound?
**A.** The GI50 was 1.6 µM (inactive).

**Q.** What about the GI50 [31] of the same compound?
**A.** The GI50 was 0.452 µM (active).

**Q.** What about the GI50 [32] of the same compound?
**A.** Its GI50 is 0.366 µM (active).

**Q.** What about the GI50 [33] of the same compound?
**A.** Its GI50 is > 100 µM (inactive).

**Q.** And the GI50 [34]?
**A.** The GI50 was > 100 µM (inactive).

**Q.** And the GI50 [35]?
**A.** The GI50 was 8.04 µM (inactive).

**Q.** And the GI50 [36]?
**A.** Its GI50 is 21.5 µM (inactive).

**Q.** What about the GI50 [37] of the same compound?
**A.** Its GI50 is 0.493 µM (active).

**Q.** What about the GI50 [38] of the same compound?
**A.** Its GI50 is over 100 µM.

**Q.** What about the GI50 [39] of the same compound?
**A.** Its GI50 is > 100 µM (inactive).

**Q.** And the GI50 [40]?
**A.** Its GI50 is 1.99 µM (inactive).

**Q.** What about the GI50 [41] of the same compound?
**A.** The GI50 was 0.345 µM (active).

**Q.** And the GI50 [42]?
**A.** Its GI50 is > 100 µM (inactive).

**Q.** And the GI50 [43]?
**A.** Its GI50 is > 100 µM (inactive).

**Q.** What about the GI50 [44] of the same compound?
**A.** The GI50 was 3.05 µM (inactive).

**Q.** And the GI50 [45]?
**A.** The GI50 was 4.39 µM (inactive).

**Q.** What about the GI50 [46] of the same compound?
**A.** Its GI50 is 1.42 µM (inactive).

**Q.** What about the GI50 [47] of the same compound?
**A.** Its GI50 is > 100 µM (inactive).

**Q.** And the GI50 [48]?
**A.** The GI50 was 5.77 µM (inactive).

**Q.** And the GI50 [49]?
**A.** The GI50 was 0.252 µM (active).

**Q.** What does the source list for `Cc1c(S(=O)(=O)N/C(N)=N/c2ccc(Cl)cc2)sc2ccc(Cl)cc12`?
**A.** GI50 [1]: 15.6 µM (inactive); GI50 [2]: 15.9 µM (inactive); GI50 [3]: 26.1 µM (inactive); GI50 [4]: 28.6 µM (inactive); GI50 [5]: 19.5 µM (inactive); GI50 [6]: 22.6 µM (inactive); GI50 [50]: 19.6 µM (inactive); GI50 [7]: 33.6 µM (inactive); GI50 [8]: 48.6 µM (inactive); GI50 [51]: 20 µM (inactive); GI50 [52]: 17.2 µM (inactive); GI50 [53]: 18.1 µM (inactive); GI50 [9]: 21.4 µM (inactive); GI50 [10]: 24.4 µM (inactive); GI50 [11]: 19.8 µM (inactive); GI50 [12]: 22 µM (inactive); GI50 [13]: 16.5 µM (inactive); GI50 [14]: 19.3 µM (inactive); GI50 [15]: 15.9 µM (inactive); GI50 [16]: 15.3 µM (inactive); GI50 [18]: 19.9 µM (inactive); GI50 [19]: 15.7 µM (inactive); GI50 [20]: 18.2 µM (inactive); GI50 [21]: 14.7 µM (inactive); GI50 [22]: 18.8 µM (inactive); GI50 [23]: 29.7 µM (inactive); GI50 [24]: 21.7 µM (inactive); GI50 [25]: 25.8 µM (inactive); GI50 [26]: 17.2 µM (inactive); GI50 [27]: 19.1 µM (inactive); GI50 [28]: 28.1 µM (inactive); GI50 [29]: 17 µM (inactive); GI50 [30]: 17.3 µM (inactive); GI50 [54]: 21.4 µM (inactive); GI50 [55]: 16 µM (inactive); GI50 [32]: 18.5 µM (inactive); GI50 [56]: 14 µM (inactive); GI50 [33]: 16.1 µM (inactive); GI50 [34]: 17.1 µM (inactive); GI50 [57]: 22.2 µM (inactive); GI50 [35]: 16.9 µM (inactive); GI50 [36]: 17.8 µM (inactive); GI50 [37]: 18.5 µM (inactive); GI50 [38]: 19.4 µM; GI50 [39]: 17.1 µM (inactive); GI50 [40]: 16.3 µM (inactive); GI50 [41]: 36.2 µM (inactive); GI50 [42]: 17 µM (inactive); GI50 [43]: 20.7 µM (inactive); GI50 [45]: 20.4 µM (inactive); GI50 [46]: 47.3 µM (inactive); GI50 [47]: 18 µM (inactive); GI50 [48]: 23.9 µM (inactive); GI50 [49]: 20.1 µM (inactive); GI50 [58]: 33.7 µM (inactive)

**Q.** What does the source list for `O=C1CSCc2sccc21`?
**A.** GI50 [1]: > 100 µM (inactive); GI50 [2]: > 100 µM (inactive); GI50 [3]: > 100 µM (inactive); GI50 [4]: > 100 µM (inactive); GI50 [5]: > 100 µM (inactive); GI50 [50]: 52.8 µM (inactive); GI50 [7]: > 100 µM (inactive); GI50 [8]: < 0.01 µM (active); GI50 [52]: > 100 µM (inactive); GI50 [53]: > 100 µM (inactive); GI50 [9]: > 100 µM (inactive); GI50 [10]: > 100 µM (inactive); GI50 [11]: > 100 µM (inactive); GI50 [12]: > 100 µM (inactive); GI50 [13]: > 100 µM (inactive); GI50 [14]: > 100 µM (inactive); GI50 [15]: > 100 µM (inactive); GI50 [16]: > 100 µM (inactive); GI50 [18]: > 100 µM (inactive); GI50 [19]: > 100 µM (inactive); GI50 [20]: > 100 µM (inactive); GI50 [21]: > 100 µM (inactive); GI50 [22]: > 100 µM (inactive); GI50 [23]: > 100 µM (inactive); GI50 [24]: > 100 µM (inactive); GI50 [25]: > 100 µM (inactive); GI50 [26]: > 100 µM (inactive); GI50 [27]: > 100 µM (inactive); GI50 [28]: > 100 µM (inactive); GI50 [29]: > 100 µM (inactive); GI50 [30]: > 100 µM (inactive); GI50 [54]: > 100 µM (inactive); GI50 [55]: > 100 µM (inactive); GI50 [31]: > 100 µM (inactive); GI50 [32]: > 100 µM (inactive); GI50 [56]: > 100 µM (inactive); GI50 [33]: > 100 µM (inactive); GI50 [34]: > 100 µM (inactive); GI50 [57]: > 100 µM (inactive); GI50 [35]: > 100 µM (inactive); GI50 [36]: > 100 µM (inactive); GI50 [37]: > 100 µM (inactive); GI50 [38]: > 100 µM; GI50 [59]: > 100 µM (inactive); GI50 [40]: > 100 µM (inactive); GI50 [41]: > 100 µM (inactive); GI50 [42]: > 100 µM (inactive); GI50 [43]: > 100 µM (inactive); GI50 [44]: 15 µM (inactive); GI50 [45]: > 100 µM (inactive); GI50 [46]: > 100 µM (inactive); GI50 [47]: > 100 µM (inactive); GI50 [48]: > 100 µM (inactive); GI50 [49]: > 100 µM (inactive)
